# Measurements: patent US9550782B2, “Compounds and methods for treating diabetes” (Medivation Technologies, Inc., priority 2011, dated 2017)
# Read-outs that look alike come from different tables or passages of the source.
# Columns and labels:
# [1] = molecular target: T1, rat adrenergic α1B receptor (Rattus norvegicus, UniProt P15823); assay: Radioligand binding, adrenergic α1B ([3H]Prazosin); design: species or system Wistar Rat; details: for Percentage inhibition of ligand binding, Adrenergic α1B (0.1 μM): compound at 0.1 μM, repeat datapoints each shown
# T1 construct: rat adrenergic α1B receptor obtained from Wistar Rat liver; from tissue; host or cells: Wistar rat liver
# T1 sequence (P15823 1-515): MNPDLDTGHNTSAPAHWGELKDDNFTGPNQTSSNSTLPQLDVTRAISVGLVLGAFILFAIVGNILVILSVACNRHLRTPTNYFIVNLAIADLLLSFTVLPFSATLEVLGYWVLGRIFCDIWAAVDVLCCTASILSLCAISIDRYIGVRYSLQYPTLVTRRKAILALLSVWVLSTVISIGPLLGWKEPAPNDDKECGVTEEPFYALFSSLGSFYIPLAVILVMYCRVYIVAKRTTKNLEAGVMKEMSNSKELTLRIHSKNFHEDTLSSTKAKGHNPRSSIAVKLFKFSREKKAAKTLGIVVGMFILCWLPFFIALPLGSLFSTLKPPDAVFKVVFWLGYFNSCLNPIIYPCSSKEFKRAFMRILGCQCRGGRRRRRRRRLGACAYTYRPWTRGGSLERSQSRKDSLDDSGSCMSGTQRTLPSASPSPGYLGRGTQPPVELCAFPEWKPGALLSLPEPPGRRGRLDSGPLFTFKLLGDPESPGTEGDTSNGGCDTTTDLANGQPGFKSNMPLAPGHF
# Outline: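 Incubation ran 60 min at 25 °C in Tris-HCl buffer (50 mM, pH 7.4, 0.5 mM EDTA) with Wistar rat liver α1B receptor. 10 μM phentolamine set non-specific binding.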
# [2] = molecular target: T2, human recombinant adrenergic α2A receptor (Homo sapiens, UniProt P08913); assay: Radioligand binding, adrenergic α2A ([3H]MK-912); details: [3H]MK-912; for Percentage inhibition of ligand binding, Adrenergic α2A (0.1 μM): compound at 0.1 μM
# T2 construct: expressed in transfected cells; host or cells: insect Sf9 cells
# T2 sequence (P08913 1-465): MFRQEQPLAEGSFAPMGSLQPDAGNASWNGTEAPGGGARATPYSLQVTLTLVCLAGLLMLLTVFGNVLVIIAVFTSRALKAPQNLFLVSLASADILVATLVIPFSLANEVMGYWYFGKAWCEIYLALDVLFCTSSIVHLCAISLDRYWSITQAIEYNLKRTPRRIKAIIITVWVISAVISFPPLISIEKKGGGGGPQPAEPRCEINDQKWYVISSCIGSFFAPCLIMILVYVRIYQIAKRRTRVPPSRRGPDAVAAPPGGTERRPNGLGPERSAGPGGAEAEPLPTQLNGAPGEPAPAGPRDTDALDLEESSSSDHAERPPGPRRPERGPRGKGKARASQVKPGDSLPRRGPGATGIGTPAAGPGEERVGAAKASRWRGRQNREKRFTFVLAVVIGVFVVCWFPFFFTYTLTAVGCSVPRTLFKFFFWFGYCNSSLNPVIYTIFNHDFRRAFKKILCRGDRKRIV
# Outline: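 Sf9-expressed receptor was incubated with compound for 60 min at 25 °C in modified Tris-HCl buffer, pH 7.4. Nonspecific binding was taken as that remaining with 10 μM WB-4101.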
# [3] = molecular target: T3, human recombinant adrenergic α2B receptor (Homo sapiens, UniProt P18089); assay: Radioligand binding, adrenergic α2B ([3H]Rauwolscine); details: for Percentage inhibition of ligand binding, Adrenergic α2B (0.03 μM): compound at 0.03 μM, repeat datapoints each shown
# T3 construct: expressed in transfected cells; host or cells: CHO-K1
# T3 sequence (P18089 1-450): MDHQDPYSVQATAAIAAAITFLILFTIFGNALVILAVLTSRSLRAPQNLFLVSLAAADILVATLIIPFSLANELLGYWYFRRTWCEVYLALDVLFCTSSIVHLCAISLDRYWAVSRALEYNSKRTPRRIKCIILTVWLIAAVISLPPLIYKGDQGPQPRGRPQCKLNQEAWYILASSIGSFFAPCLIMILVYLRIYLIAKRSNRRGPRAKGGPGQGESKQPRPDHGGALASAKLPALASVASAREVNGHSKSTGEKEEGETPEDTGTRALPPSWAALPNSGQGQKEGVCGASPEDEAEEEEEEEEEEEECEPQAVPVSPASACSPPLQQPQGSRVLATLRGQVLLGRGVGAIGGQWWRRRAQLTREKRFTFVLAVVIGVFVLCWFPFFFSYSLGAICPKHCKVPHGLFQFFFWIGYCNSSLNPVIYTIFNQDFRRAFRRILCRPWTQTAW
# Outline: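 Readout: percent inhibition of specific [3H]Rauwolscine binding, measured by filtration and counting. Conditions: CHO-K1 cell-expressed receptor, 2.5 nM radioligand, 60 min, 25° C, Tris-HCl pH 7.4 buffer with MgCl2, EDTA, BSA. Non-specific binding: 10 μM Prazosin.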
# [4] = repeat datapoints each shown, 0.1 µM
SMILES,"Percentage inhibition of ligand binding, Adrenergic α1B (0.1 μM) ([1]; 0.1 µM) [%]","Percentage inhibition of ligand binding, Adrenergic α2A (0.1 μM) [2, 4] [%]","Percentage inhibition of ligand binding, Adrenergic α2B (0.03 μM) ([3]; 0.03 µM) [%]","Percentage inhibition of ligand binding, Adrenergic α2B ([3]; 0.03 μM compound, 0.03 µM) [%]",other results
"Cc1ccc2c(c1)c1c(n2CC(C)(O)c2cccnc2)CN(C)CC1 (stereo not drawn) [14b, 1-(2,6-dimethyl-1,2,3,4-tetrahydro-3-carbolin-9-yl)-2-pyridin-3-yl-propan-2-ol]",25,−6,14,,
Cc1ccc2c(c1)c1c(n2CC(C)(O)c2ccc(C)nc2)CCN(C)C1 (stereo not drawn) [29b],14,10,46,,
CN1CCc2c(c3cc(Cl)ccc3n2CC(C)(O)c2cccnc2)C1 (stereo not drawn) [31b],3,14,36,,
Cc1ccc2c(c1)c1c(n2C(C)C(O)c2ccncc2)CCN(C)C1 (stereo not drawn) [127b],,,,1,"Percentage inhibition of ligand binding, Adrenergic α1B ([1]; 0.1 μM compound): 13%; Percentage inhibition of ligand binding, Adrenergic α2A ([2]; 0.1 μM compound): 4%"
Cc1ccc2c(c1)c1c(n2CC(C)(O)c2cccnc2)CNCC1 (stereo not drawn) [128b],,,,54,"Percentage inhibition of ligand binding, Adrenergic α1B ([1]; 0.1 μM compound, 0.1 µM): 45%; Percentage inhibition of ligand binding, Adrenergic α2A ([2]; 0.1 μM compound, 0.1 µM): 22%"
Cc1ccc2c(c1)c1c(n2CC(O)c2cn[nH]c2)CCN(C)C1 (stereo not drawn) [II-106b],,,,,"Percentage inhibition of ligand binding, Adrenergic α1B (0.1 μM) [1]: 31%; Percentage inhibition of ligand binding, Adrenergic α2A (0.1 μM) ([2]; repeat datapoints each shown): 8%; Percentage inhibition of ligand binding, Adrenergic α2B (0.03 μM) [3]: 36%"
Cc1ccc2c(c1)c1c(n2CC(O)c2ccc(C#N)cc2)CCNC1 (stereo not drawn) [II-116],,,,,"inhibition at 0.1 µM ([1]; read-out: Percentage inhibition of ligand binding, Adrenergic α1B (0.1 μM), compound at 0.1 μM, repeat datapoints each shown): 4%; inhibition at 0.1 µM ([2]; read-out: Percentage inhibition of ligand binding, Adrenergic α2A (0.1 μM), compound at 0.1 μM, repeat datapoints each shown): 3%; inhibition at 0.03 µM ([3]; read-out: Percentage inhibition of ligand binding, Adrenergic α2B (0.03 μM), compound at 0.03 μM, repeat datapoints each shown): 43%"
Cc1ccc2c(c1)c1c(n2CC(N)c2ccncc2)CC2CCC1N2C (stereo not drawn) [compound 155],,,,,"inhibition at 0.1 µM ([1]; 0.1 μM compound, read-out: Percentage inhibition of ligand binding, Adrenergic α1B): 15%; inhibition at 0.1 µM ([2]; 0.1 μM compound, read-out: Percentage inhibition of ligand binding, Adrenergic α2A): 14%; inhibition at 0.03 µM ([3]; 0.03 μM compound, read-out: Percentage inhibition of ligand binding, Adrenergic α2B): 36%"

# Now from value to compound, other results behind:
"Percentage inhibition of ligand binding, Adrenergic α1B (0.1 μM) ([1]; 0.1 µM) [%]","Percentage inhibition of ligand binding, Adrenergic α2A (0.1 μM) [2, 4] [%]","Percentage inhibition of ligand binding, Adrenergic α2B (0.03 μM) ([3]; 0.03 µM) [%]","Percentage inhibition of ligand binding, Adrenergic α2B ([3]; 0.03 μM compound, 0.03 µM) [%]",SMILES,other results
28,14,27,,"Cc1cnc2c(c1)c1c(n2CCc2ccc(C)nc2)CCN2CCCC12 (stereo not drawn) [74b, 10-methyl-7-(2-(6-methylpyridin-3-yl)ethyl)-2,3,5,6,7,1c-hexahydro-1H-pyrido[3′,2′:4,5]pyrrolo[2,3-g]indolizine]",
,,,52,Cc1ccc2c(c1)c1c(n2CC(O)c2ccncc2C)CCN(C)C1 (stereo not drawn) [133a],"Percentage inhibition of ligand binding, Adrenergic α1B ([1]; 0.1 μM compound, 0.1 µM): 57%; Percentage inhibition of ligand binding, Adrenergic α2A ([2]; 0.1 μM compound, 0.1 µM): 13%"
